This is an account of results in patent US12582681B2, “Fermented milk product for administration in canids such as dogs, and uses thereof” (priority 2019, dated 2026).

Assay [1] has as its system Lactobacillus reuteri CECT 9859. Briefly: Broth microdilution MIC (MRS and LSM medium). For Category (LSM): key: S, susceptible; R, resistant. For Category (MRS): key: S, susceptible; R, resistant. As to conditions: for Category (LSM) / Category (MRS): against EFSA (2018) breakpoints. Format: cell-based. A general note: In broth dilution the organism is exposed to a series of concentrations in liquid medium.
The next assay deals with S. aureus ATCC25923. Briefly: Broth microdilution MIC, control strain. For Category: key: S, susceptible; R, resistant. As to conditions: for Category: against CLSI values. Format: cell-based.
Setting [2] is: Limosilactobacillus reuteri, CECT9859, 24 h, LSM medium, anaerobic, 37° C., 24 h, read-out: MIC.
Setting [3] is: Limosilactobacillus reuteri, CECT9859, 24 h, MRS medium, anaerobic, 37° C., 24 h, read-out: MIC.
[4] abbreviates: Staphylococcus aureus, ATCC25923, MH medium, control strain, read-out: MIC.
Setting [5] is: Staphylococcus aureus, ATCC25923.

Values after ≈ are worked out from the molar mass of the structure shown. Like-named read-outs stand apart in the source and are kept apart here. Some results are limits rather than exact numbers.

By MIC is commonly meant the lowest concentration that inhibits growth of the organism.

In the case of `CC1(C)S[C@@H]2[C@H](NC(=O)[C@H](N)c3ccccc3)C(=O)N2[C@H]1C(=O)O` [Ampicillin], the “Category (LSM)” value in assay [1] (LSM medium) is on record as “S”. The MIC in assay [1] (setting [2]) stood at 0.25 µg/mL (≈ 0.715 µM); in assay [1] (setting [3]), 0.25 µg/mL (≈ 0.715 µM); with S. aureus ATCC25923 (setting [4]), 0.125 µg/mL (≈ 0.358 µM). Also, the “Category (MRS)” value in assay [1] (MRS medium) is given as “S”. Moreover, in the assay on S. aureus ATCC25923 (MH medium), the Category result is “S”.

Consider `O=C(N[C@H](CO)[C@H](O)c1ccc([N+](=O)[O-])cc1)C(Cl)Cl` [Chloramphenicol], for which the “Category (LSM)” value in assay [1] (LSM medium) was “S”. Moreover, the minimum inhibitory concentration (MIC) (in assay [1] (setting [2]); in assay [1] (setting [3]); with S. aureus ATCC25923 (setting [4])) was 4 µg/mL (≈ 12.4 µM) in each case. In assay [1] (MRS medium), the “Category (MRS)” value is on record as “S”. Moreover, the Category entry with S. aureus ATCC25923 (MH medium) was “S”.

On to `CCC[C@@H]1C[C@@H](C(=O)N[C@@H]([C@H]2O[C@H](SC)[C@H](O)[C@@H](O)[C@H]2O)[C@H](C)Cl)N(C)C1` [Clindamycin], for which, in assay [1] (LSM medium), the “Category (LSM)” value is reported as “S”. The minimum inhibitory concentration (MIC) worked out at 0.25 µg/mL (≈ 0.588 µM) in assay [1] (setting [2]), 0.25 µg/mL (≈ 0.588 µM) in assay [1] (setting [3]) and 0.125 µg/mL (≈ 0.294 µM) in the assay on S. aureus ATCC25923 (setting [5]). Besides, the “Category (MRS)” value in assay [1] (MRS medium) is given as “S”. In addition, in the assay with S. aureus ATCC25923 (MH medium), the Category result is recorded as “S”.

Take `CC[C@H]1OC(=O)[C@H](C)[C@@H](O[C@H]2C[C@@](C)(OC)[C@@H](O)[C@H](C)O2)[C@H](C)[C@@H](O[C@@H]2O[C@H](C)C[C@H](N(C)C)[C@H]2O)[C@](C)(O)C[C@@H](C)C(=O)[C@H](C)[C@@H](O)[C@]1(C)O` [Erythromycin]: the “Category (LSM)” value in assay [1] (LSM medium) is “S”. For the same molecule, the minimal inhibitory concentration (MIC) in assay [1] (Limosilactobacillus reuteri, CECT9859, 24 h) came out at 0.125 µg/mL (≈ 0.17 µM); in assay [1] (setting [3]) it was 0.25 µg/mL (≈ 0.341 µM); against S. aureus ATCC25923 (setting [5]) it was 0.125 µg/mL (≈ 0.17 µM). In assay [1] (MRS medium), the “Category (MRS)” value is reported as “S”. Also, the Category entry in the assay on S. aureus ATCC25923 (MH medium) is “S”.

On to `NC[C@H]1O[C@H](O[C@H]2[C@H](O)[C@@H](O[C@H]3O[C@H](CO)[C@@H](O)[C@H](N)[C@H]3O)[C@H](N)C[C@@H]2N)[C@H](O)[C@@H](O)[C@@H]1O` [Kanamycin], for which the “Category (LSM)” value in assay [1] (LSM medium) is on record as “S”. Moreover, the values for the minimal inhibitory concentration (MIC) (in assay [1] (setting [2]); in assay [1] (setting [3]); with S. aureus ATCC25923 (setting [4])) were 64 µg/mL (≈ 132 µM), 512 µg/mL (≈ 1060 µM) and 2 µg/mL (≈ 4.13 µM), respectively. Besides, in assay [1] (MRS medium), the “Category (MRS)” value is recorded as “R”. Moreover, the Category entry in the assay with S. aureus ATCC25923 (MH medium) is recorded as “S”.

`[H]/N=C(/N)N[C@H]1[C@H](O)[C@@H](O)[C@H](O[C@@H]2O[C@@H](C)[C@](O)(C=O)[C@H]2O[C@@H]2O[C@@H](CO)[C@H](O)[C@@H](O)[C@@H]2NC)[C@@H](N/C(N)=N\[H])[C@@H]1O` [Streptomycin]: the “Category (LSM)” value in assay [1] (LSM medium) is “S”. Also, the minimum inhibitory concentration (MIC) was 16 µg/mL (≈ 27.5 µM) in assay [1] (setting [2]), 128 µg/mL (≈ 220 µM) in assay [1] (setting [3]) and 2 µg/mL (≈ 3.44 µM) with S. aureus ATCC25923 (setting [4]). Further, the “Category (MRS)” value in assay [1] (MRS medium) is “R”.

In the case of `CN(C)[C@@H]1C(O)=C(C(N)=O)C(=O)[C@@]2(O)C(O)=C3C(=O)c4c(O)cccc4[C@@](C)(O)[C@H]3C[C@@H]12` [Tetracycline], the “Category (LSM)” value in assay [1] (LSM medium) is on record as “S”. The MIC in assay [1] (setting [2]) came out at 8 µg/mL (≈ 18 µM); in assay [1] (setting [3]) it was 4 µg/mL (≈ 9 µM); in the assay on S. aureus ATCC25923 (setting [4]) it was 1 µg/mL (≈ 2.25 µM). In addition, the “Category (MRS)” value in assay [1] (MRS medium) is on record as “S”. In the assay with S. aureus ATCC25923 (MH medium), the Category result is on record as “S”.

Regarding `CN[C@H](CC(C)C)C(=O)N[C@H]1C(=O)N[C@@H](CC(N)=O)C(=O)N[C@H]2C(=O)N[C@H]3C(=O)N[C@H](C(=O)N[C@H](C(=O)O)c4cc(O)cc(O)c4-c4cc3ccc4O)[C@H](O)c3ccc(c(Cl)c3)Oc3cc2cc(c3O[C@@H]2O[C@H](CO)[C@@H](O)[C@H](O)[C@H]2O[C@H]2C[C@](C)(N)[C@H](O)[C@H](C)O2)Oc2ccc(cc2Cl)[C@H]1O` [Vancomycin], in assay [1] (LSM medium), the “Category (LSM)” value is “R”. The minimum inhibitory concentration (MIC) in assay [1] (setting [2]) was 512 µg/mL (≈ 353 µM); in assay [1] (setting [3]) it was above 512 µg/mL; in the assay on S. aureus ATCC25923 (setting [5]), 1 µg/mL (≈ 0.69 µM). Also, the “Susceptibility of the strain” value in assay [1] (MRS and LSM) is listed as “resistant”. Besides, the “Category (MRS)” value in assay [1] (MRS medium) is on record as “R”. Also, the Category entry in the assay with S. aureus ATCC25923 (MH medium) is listed as “S”.

Take Gentamicin: the “Category (LSM)” value in assay [1] (LSM medium) is listed as “S”. Moreover, the MIC in assay [1] (LSM medium, anaerobic, 37° C., 24 h) was determined as 2 µg/mL; in assay [1] (MRS medium, anaerobic, 37° C., 24 h) it was 16 µg/mL; in the assay with S. aureus ATCC25923 (MH medium, control strain), 0.125 µg/mL. In assay [1] (MRS medium), the “Category (MRS)” value was “R”. In addition, in the assay with S. aureus ATCC25923 (MH medium), the Category entry is reported as “S”.
